Experiment: Net charge vs pH of the payload molecule
Assay type: physicochemical
Excerpt: Step 2: This is an essential step. For short payload molecules with a single ionizable group is enough to know pKa, so the useful pH range is pH>pKa+1 for acidic compounds and pH<pKa−1 for basic compounds. For payloads that are macromolecules with multiple different ionizable groups, such as peptides and proteins, must be measured or calculated net charge vs pH dependence for the full pH range (0-14). Provided three examples, refer to FIGS. 1 to 3.
For the vancomycin example, there are two ranges of pH where it is ionized (FIG. 1), one is pH 1 and below and the second range is pH 8 and up. Vancomycin at pH ˜1 acquires net charge +1, however at pH 12, the net charge is −4.5. Therefore, vancomycin must be encapsulated at pH 12 by the disclosed method as a “negatively charged payload”. Note, in the range of pH from 3 to 7.5 it is impossible to encapsulate vancomycin because it has no charge.
Both Cas9 and Cas13 endonucleases have to be encapsulated at pH<4 as “positively charged payloads”.

CN[C@H](CC(C)C)C(=O)N[C@H]1C(=O)N[C@@H](CC(N)=O)C(=O)N[C@H]2C(=O)N[C@H]3C(=O)N[C@H](C(=O)N[C@H](C(=O)O)c4cc(O)cc(O)c4-c4cc3ccc4O)[C@H](O)c3ccc(c(Cl)c3)Oc3cc2cc(c3O[C@@H]2O[C@H](CO)[C@@H](O)[C@H](O)[C@H]2O[C@H]2C[C@](C)(N)[C@H](O)[C@H](C)O2)Oc2ccc(cc2Cl)[C@H]1O [Vancomycin, vancomycin]
net charge (pH 12 (FIG. 1)): −4.5
net charge (pH from 3 to 7.5 (FIG. 1)): no charge
net charge (pH ˜1 (FIG. 1)): +1
